pIC50: −log10 of the molar value. Where “and” joins values, the source holds several entries; their conditions need not be identical. Equal entries are not always repeated. One block for each compound: values may come before it.
System: MDA-MB-231 complex spheroids, growth inhibition
Test: Anticancer human tumor MDA-MB-231 cell line growth inhibition [Asc];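 also: spheroids exposed to compounds for 7 days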
Conditions: for viability, T/C: stronger effect = lower value
Procedure, shortened: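 Complex solid-tumor spheroids incorporating human endothelial and mesenchymal stem cells received single agents or combinations over half-log dilution ranges anchored to clinical Cmax.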

[1] = curve of first compound, second compound 0.1 µM
[2] = curve of first compound, second compound 0.316 µM
[3] = curve of first compound, second compound 1 µM
[4] = curve of first compound, second compound 3.16 µM
[5] = curve of first compound, second compound 10 µM

- pIC50 (curve of first compound, second compound 0.03 µM): 7.25
- pIC50 (curve of first compound, second compound 0.0949 µM): 7.24
- pIC50 (curve of first compound, second compound 0.3 µM): 7.34
- pIC50 (curve of first compound, second compound 0.949 µM): 7.44
- pIC50 (curve of first compound, second compound 3 µM): 7.84
SMILES: O=C(c1ccc(F)c(F)c1Nc1ccc(I)cc1F)N1CC(O)([C@@H]2CCCCN2)C1 + CCN1C(C(=O)NC23CCC(C(=O)O)(CC2)CC3)C(c2cccc(Cl)c2F)C2(C(=O)Nc3cc(Cl)ccc32)C12CCCCC2
- viability, T/C (second compound 0.03 µM, first compound 0.00316 µM): 81.9%
- viability, T/C (second compound 0.03 µM, first compound 0.01 µM): 65.3%
- viability, T/C (second compound 0.03 µM, first compound 0.0316 µM): 53.4%
- viability, T/C (second compound 0.03 µM, first compound 0.1 µM): 47.6%
- viability, T/C (second compound 0.03 µM, first compound 0.316 µM): 30.3%
- viability, T/C (second compound 0.03 µM, first compound 1 µM): 5.13%
- viability, T/C (second compound 0.0949 µM, first compound 0.00316 µM): 84.8%
- viability, T/C (second compound 0.0949 µM, first compound 0.01 µM): 64.5%
- viability, T/C (second compound 0.0949 µM, first compound 0.0316 µM): 54.1%
- viability, T/C (second compound 0.0949 µM, first compound 0.1 µM): 47.6%
- viability, T/C (second compound 0.0949 µM, first compound 0.316 µM): 30.6%
- viability, T/C (second compound 0.0949 µM, first compound 1 µM): 4.62%
- viability, T/C (second compound 0.3 µM, first compound 0.00316 µM): 95.7%
- viability, T/C (second compound 0.3 µM, first compound 0.01 µM): 63.6%
- viability, T/C (second compound 0.3 µM, first compound 0.0316 µM): 53.2%
- viability, T/C (second compound 0.3 µM, first compound 0.1 µM): 44.4%
- viability, T/C (second compound 0.3 µM, first compound 0.316 µM): 27.3%
- viability, T/C (second compound 0.3 µM, first compound 1 µM): 4.93%
- viability, T/C (second compound 0.949 µM, first compound 0.00316 µM): 86%
- viability, T/C (second compound 0.949 µM, first compound 0.01 µM): 58.5%
- viability, T/C (second compound 0.949 µM, first compound 0.0316 µM): 52.3%
- viability, T/C (second compound 0.949 µM, first compound 0.1 µM): 40.3%
- viability, T/C (second compound 0.949 µM, first compound 0.316 µM): 22.6%
- viability, T/C (second compound 0.949 µM, first compound 1 µM): 4.93%
- viability, T/C (second compound 3 µM, first compound 0.00316 µM): 70.9%
- viability, T/C (second compound 3 µM, first compound 0.01 µM): 48.6%
- viability, T/C (second compound 3 µM, first compound 0.0316 µM): 43%
- viability, T/C (second compound 3 µM, first compound 0.1 µM): 31.7%
- viability, T/C (second compound 3 µM, first compound 0.316 µM): 11.5%
- viability, T/C (second compound 3 µM, first compound 1 µM): 4.76%

- pIC50 [1]: 5.64
- pIC50 [2]: 5.68
- pIC50 [3]: 5.73
- pIC50 [4]: 5.76
- pIC50 [5]: 5.77
SMILES: C=C(F)C(=O)N1CCN(c2nc(OCC3CCCN3C)nc3c2CCN(c2cccc4cccc(Cl)c24)C3)CC1CC#N (centres undefined) + Cc1c(S(C)(=O)=O)c(-c2cc(F)cc(N3CCN(c4ccc(NS(=O)(=O)c5ccc(NC(CCN6CCC(C(=O)OCCCP(=O)(O)O)CC6)CSc6ccccc6)c(S(=O)(=O)C(F)(F)F)c5)cc4)CC3)c2)c(-c2ccc(Cl)cc2)n1C(C)C
- viability, T/C (second compound 0.1 µM, first compound 0.0316 µM): 92.2%
- viability, T/C (second compound 0.1 µM, first compound 0.1 µM): 97.2%
- viability, T/C (second compound 0.1 µM, first compound 0.316 µM): 97.2%
- viability, T/C (second compound 0.1 µM, first compound 1 µM): 101%
- viability, T/C (second compound 0.1 µM, first compound 3.16 µM): 31.6%
- viability, T/C (second compound 0.1 µM, first compound 10 µM): 0.12%
- viability, T/C (second compound 0.316 µM, first compound 0.0316 µM): 106%
- viability, T/C (second compound 0.316 µM, first compound 0.1 µM): 108%
- viability, T/C (second compound 0.316 µM, first compound 0.316 µM): 106%
- viability, T/C (second compound 0.316 µM, first compound 1 µM): 109%
- viability, T/C (second compound 0.316 µM, first compound 3.16 µM): 18.6%
- viability, T/C (second compound 0.316 µM, first compound 10 µM): 0.09%
- viability, T/C (second compound 1 µM, first compound 0.0316 µM): 103%
- viability, T/C (second compound 1 µM, first compound 0.1 µM): 100%
- viability, T/C (second compound 1 µM, first compound 0.316 µM): 97.5%
- viability, T/C (second compound 1 µM, first compound 1 µM): 97.4%
- viability, T/C (second compound 1 µM, first compound 3.16 µM): 8.81%
- viability, T/C (second compound 1 µM, first compound 10 µM): 0.09%
- viability, T/C (second compound 3.16 µM, first compound 0.0316 µM): 95.8%
- viability, T/C (second compound 3.16 µM, first compound 0.1 µM): 93%
- viability, T/C (second compound 3.16 µM, first compound 0.316 µM): 94.9%
- viability, T/C (second compound 3.16 µM, first compound 1 µM): 91.8%
- viability, T/C (second compound 3.16 µM, first compound 3.16 µM): 4.45%
- viability, T/C (second compound 3.16 µM, first compound 10 µM): 0.09%
- viability, T/C (second compound 10 µM, first compound 0.0316 µM): 104%
- viability, T/C (second compound 10 µM, first compound 0.1 µM): 100%
- viability, T/C (second compound 10 µM, first compound 0.316 µM): 99.7%
- viability, T/C (second compound 10 µM, first compound 1 µM): 91.3%
- viability, T/C (second compound 10 µM, first compound 3.16 µM): 2.9%
- viability, T/C (second compound 10 µM, first compound 10 µM): 0.14%

- pIC50 (curve of compound): 7.43 and 7.08 and 7.87
SMILES: O=C(c1ccc(F)c(F)c1Nc1ccc(I)cc1F)N1CC(O)([C@@H]2CCCCN2)C1
- viability, T/C (compound 0.00316 µM): 86.9% and 79.8% and 88.6%
- viability, T/C (compound 0.01 µM): 56.7% and 67.7% and 55.5%
- viability, T/C (compound 0.0316 µM): 47.7% and 58.3% and 33.5%
- viability, T/C (compound 0.1 µM): 43.8% and 50.7% and 21.9%
- viability, T/C (compound 0.316 µM): 29.6% and 30.4% and 22.2%
- viability, T/C (compound 1 µM): 2.86% and 5.09% and 7.27%

- pIC50 (curve of compound): < 7.00
SMILES: NC1CCC(NC2CC2c2ccccc2)CC1 (centres undefined)
- viability, T/C (compound 0.000316 µM): 102% and 98.5% and 104%
- viability, T/C (compound 0.001 µM): 108% and 99% and 105%
- viability, T/C (compound 0.00316 µM): 105% and 98.7% and 107%
- viability, T/C (compound 0.01 µM): 105% and 98.6% and 101%
- viability, T/C (compound 0.0316 µM): 103% and 96.8% and 107%
- viability, T/C (compound 0.1 µM): 104% and 98.3% and 99.8%

- pIC50 [1]: < 5.52
- pIC50 [2]: < 5.52
- pIC50 [3]: < 5.52
- pIC50 [4]: < 5.52
- pIC50 [5]: < 5.52
SMILES: CCN1C(C(=O)NC23CCC(C(=O)O)(CC2)CC3)C(c2cccc(Cl)c2F)C2(C(=O)Nc3cc(Cl)ccc32)C12CCCCC2 (centres undefined) + Cc1c(S(C)(=O)=O)c(-c2cc(F)cc(N3CCN(c4ccc(NS(=O)(=O)c5ccc(NC(CCN6CCC(C(=O)OCCCP(=O)(O)O)CC6)CSc6ccccc6)c(S(=O)(=O)C(F)(F)F)c5)cc4)CC3)c2)c(-c2ccc(Cl)cc2)n1C(C)C
- viability, T/C (second compound 0.1 µM, first compound 0.00949 µM): 90%
- viability, T/C (second compound 0.1 µM, first compound 0.03 µM): 82.6%
- viability, T/C (second compound 0.1 µM, first compound 0.0949 µM): 103%
- viability, T/C (second compound 0.1 µM, first compound 0.3 µM): 103%
- viability, T/C (second compound 0.1 µM, first compound 0.949 µM): 101%
- viability, T/C (second compound 0.1 µM, first compound 3 µM): 108%
- viability, T/C (second compound 0.316 µM, first compound 0.00949 µM): 104%
- viability, T/C (second compound 0.316 µM, first compound 0.03 µM): 105%
- viability, T/C (second compound 0.316 µM, first compound 0.0949 µM): 105%
- viability, T/C (second compound 0.316 µM, first compound 0.3 µM): 106%
- viability, T/C (second compound 0.316 µM, first compound 0.949 µM): 106%
- viability, T/C (second compound 0.316 µM, first compound 3 µM): 94.9%
- viability, T/C (second compound 1 µM, first compound 0.00949 µM): 100%
- viability, T/C (second compound 1 µM, first compound 0.03 µM): 100%
- viability, T/C (second compound 1 µM, first compound 0.0949 µM): 104%
- viability, T/C (second compound 1 µM, first compound 0.3 µM): 100%
- viability, T/C (second compound 1 µM, first compound 0.949 µM): 105%
- viability, T/C (second compound 1 µM, first compound 3 µM): 82%
- viability, T/C (second compound 3.16 µM, first compound 0.00949 µM): 94.5%
- viability, T/C (second compound 3.16 µM, first compound 0.03 µM): 98.4%
- viability, T/C (second compound 3.16 µM, first compound 0.0949 µM): 92.9%
- viability, T/C (second compound 3.16 µM, first compound 0.3 µM): 91.2%
- viability, T/C (second compound 3.16 µM, first compound 0.949 µM): 93.4%
- viability, T/C (second compound 3.16 µM, first compound 3 µM): 70.8%
- viability, T/C (second compound 10 µM, first compound 0.00949 µM): 94%
- viability, T/C (second compound 10 µM, first compound 0.03 µM): 95.7%
- viability, T/C (second compound 10 µM, first compound 0.0949 µM): 93.5%
- viability, T/C (second compound 10 µM, first compound 0.3 µM): 93.7%
- viability, T/C (second compound 10 µM, first compound 0.949 µM): 83.3%
- viability, T/C (second compound 10 µM, first compound 3 µM): 57.6%

Reference: PubChem BioAssay AID1963443 (Molecular Pharmacology Branch, DTP, NCI, 2024)
